The record followed here is US20100105772A1, “USE OF NOVEL LIPID MEDIATORS TO INHIBIT ANGIOGENESIS” (priority 2008, published 2010).

The subject of assay [1] is VEGF-A-induced corneal HA and LA. The assay is described as follows: Corneal micropocket assay with VEGF-A pellets (vessel density). The assay is classed as in vivo, mice. The conditions noted are these: VEGF-A micropellet, day 7. On the procedure:
FIG. 6. ATLa Regulate IL-1β- and VEGF-A-induced Corneal HA and LA. Hydron pellets containing IL-1β or VEGF-A were implanted into the corneas on day 0. ATLa or vehicle was subconjunctivally injected every 48 h from 0 to 7 days after pellet implantation (4 corneas per treatment, for each pellet-type). A. Slit-lamp examination was performed on day 7 and representative images are shown. B. The density of blood vessels (CD31^high/LYVE-1^−) or lymphatic vessels (CD31^lowLYVE-1^high) covering each cornea was analyzed. Values are expressed as the mean (±SEM) of each treatment group (4 corneas per group) and the data are representative of two independent experiments (*P<0.05 vs vehicle-treated group, t-test).
The corneal micropocket assay in mice and quantification of the resultant NV has been described previously.^16,17 In brief, 0.3 μl of hydron pellets (IFN Sciences, New Brunswick, N.J.) containing 30 ng of murine IL-1β (R&D Systems, Minneapolis, Minn.) or 200 ng of VEGF-A (gift from BRB Preclinical Repository, National Cancer Institute) were prepared and implanted into the corneal stroma of male BALB/c mice. After 7 days the animals were sacrificed and the corneas were harvested for quantitative analysis of HA and LA.
BALB/c mice were randomized to receive ATLa, or vehicle (normal saline) by subconjunctival injection in a masked fashion after suture or hydron pellet placement. […]

Another assay deals with VEGF-A mRNA. The assay is described as follows: Real-time PCR of VEGF-A mRNA in suture-induced inflamed corneas. The assay is classed as in vivo, mice. The conditions noted are these: 24 h and 72 h after suture placement; vs vehicle-treated group. The method, then: FIG. 4. The Impact of Lipoxin on the mRNA Expression of VEGFs and VEGFRs in Inflamed Corneas. ATLa or vehicle was subconjunctivally injected at 0 h and 48 h after suture placement. For each compound treatment, corneas were harvested from a group of mice at 24 h, and another group at 72 h after suture placement, as well as from normal untreated control corneas (6 corneas per group). (A) VEGF ligand species (VEGF-A, VEGF-C, VEGF-D) and (B) VEGFRs (VEGFR2 and VEGFR3) were tested by real-time PCR and normalized to GAPDH mRNA. Values are expressed as fold change over the normal control cornea. Results represent the mean (±SEM) of three samples per group (each sample consisted of 2 pooled corneas), and the data are representative of two independent experiments (*P<0.05, **P<0.001, ***P<0.0005, vs vehicle-treated group, t-test). […]
BALB/c mice were randomized to receive ATLa, or vehicle (normal saline) by subconjunctival injection in a masked fashion after suture or hydron pellet placement. […] ATLa was synthesized as described previously.^20 The physical properties were monitored routinely via LC/MS/MS matching the reported biological and physical properties prior to analysis in present experiments. […]

In the case of `COC(=O)CCC[C@H](O)[C@H](O)/C=C/C=C/C=C\C=C\[C@H](O)COc1ccc(F)cc1` [ATLa, 15-epi-16-(para-fluoro)-phenoxy-lipoxin A4 methyl ester], the BV density in assay [1] (n=4, mean±SEM) is given as 5.9±0.4%. In assay [1] (vs vehicle), the “LA stimulated by VEGF-A” value is reported as “no significant reduction”. Further, the “VEGF-A mRNA expression” value in the assay with VEGF-A mRNA was “lower”.
